Converted amounts (≈) assume the structure as drawn.
Columns and labels:
S. aureus MRSA4 = assay: MIC against S. aureus MRSA4 in vitro (broth dilution); type: cell-based; details: Staphylococcus aureus; S. aureus MRSA4 in vitro; SAR series (Fig. 2)
Excerpt: We synthesized 50 compounds (Fig. 2, Supplementary Table 1) using the Steglich esterification scheme[31] in the presence of a […], 1-ethyl-3-(3-dimethylaminopropyl)-carbodiimide hydrochloride (Fig. 1b). Antimicrobial activities of the compounds were examined by determining the MIC against S. aureus MRSA4 in vitro; therapeutic activities were examined using a systemic infection model of silkworms infected with S. aureus MSSA1. […]
Antimicrobial activity was assessed by determining the MIC by broth dilution assay according to our previous reports[21],[35],[36] as per the Clinical and Laboratory Standards Institute[37]. Briefly, serial dilutions of compound 5, compound 7, and positive controls were prepared in cation-adjusted Mueller-Hinton Broth (MHB, Difco, Franklin Lakes, NJ, USA), 100 µl of which was dispensed into each well of a round-bottomed 96-well plate. The final concentrations in the well ranged from 128 µg/ml to 0.0625 µg/ml. Bacteria were grown at 37 °C overnight on either Luria Bertani (tryptone 10 g/l, yeast extract 5 g/l, NaCl 10 g/l) or Tryptic Soy Broth (TSB, Difco) agar plates or sheep blood agar plates (Eiken Chemical Co. Ltd., Tokyo, Japan). Bacterial inoculum was prepared by direct suspension of the colonies in 0.9% saline, and adjusted to obtain a turbidity equivalent to a 0.5 McFarland standard using a spectrophotometer UV-1280 (Shimadzu Corp., Kyoto, Japan). The suspension was then diluted 1:20 in cation-adjusted MHB (Difco), and 10 µl of it was inoculated into each well of previously prepared 96-well plates containing compounds to obtain approximately 5 × 10^4 colony forming units/well and incubated at 37 °C for 20 h. […] Vancomycin (Wako Pure Chemicals) or norfloxacin (Sigma Aldrich, St Louis, MO, USA) were used as positive controls. Each plate contained a growth control well and a vehicle control well. The MIC was determined as the minimum concentration that inhibited the growth of the bacteria.

S. aureus MSSA1 = assay: Silkworm systemic infection model, therapeutic activity (ED50); type: in vivo, Staphylococcus aureus; details: for ED50: Staphylococcus aureus, silkworms infected with S. aureus MSSA1 (Fig. 2), read-out: ED50
Excerpt: We synthesized 50 compounds (Fig. 2, Supplementary Table 1) using the Steglich esterification scheme[31] in the presence of a […], 1-ethyl-3-(3-dimethylaminopropyl)-carbodiimide hydrochloride (Fig. 1b). Antimicrobial activities of the compounds were examined by determining the MIC against S. aureus MRSA4 in vitro; therapeutic activities were examined using a systemic infection model of silkworms infected with S. aureus MSSA1.
A total of 108,373 compounds from the chemical library of the Drug Discovery Initiative at the University of Tokyo were screened for antibacterial activity against S. aureus strain MRSA4 as previously reported. Those compounds that inhibited the growth of MRSA4 at 100 µM were further evaluated for their therapeutic effects in silkworms infected with S. aureus strain MSSA1 according to previously reported studies[17],[21].

For `O=C(OCc1ccc(Cl)cc1)c1ccc([N+](=O)[O-])s1` [compound 48], the MIC (S. aureus MRSA4) was 3.1 µg/mL (≈ 10.4 µM) and the ED50 (S. aureus MSSA1) was 58 mg/kg.

For `O=C(OCc1cc(Cl)cc(Cl)c1)c1ccc([N+](=O)[O-])o1` [compound 1], the MIC (S. aureus MRSA4) was 12.5 µg/mL (≈ 39.5 µM), the “survival of the S. aureus-infected silkworms” value (S. aureus MSSA1; S. aureus-infected silkworms) was “slightly prolonged the survival” and the ED50 (S. aureus MSSA1) was > 95 mg/kg.

With `Cc1cc(C)cc(COC(=O)c2ccc([N+](=O)[O-])s2)c1` [compound 53] the MIC (S. aureus MRSA4) was 6.3 µg/mL (≈ 21.6 µM) and the ED50 (S. aureus MSSA1) was > 210 mg/kg.

In the case of `O=Cc1ccc(C(=O)OCc2cc(Br)cc(Br)c2)s1` [compound 24], the MIC (S. aureus MRSA4) is reported as 25 µg/mL (≈ 61.9 µM) and the ED50 (S. aureus MSSA1) is reported as > 100 mg/kg.

For `O=C(OCc1c(Br)c(Br)c(Br)c(Br)c1Br)c1ccc([N+](=O)[O-])s1` [compound 22], the MIC (S. aureus MRSA4) was > 200 µg/mL.

With `O=C(OCc1cccc(F)c1)c1ccc([N+](=O)[O-])s1` [compound 19] the MIC (S. aureus MRSA4) was 0.4 µg/mL (≈ 1.42 µM) and the ED50 (S. aureus MSSA1) was > 87 mg/kg.

With `O=Cc1ccc(C(=O)OCc2cc(F)cc(Cl)c2)s1` [compound 25] the MIC (S. aureus MRSA4) was 50 µg/mL (≈ 167 µM) and the ED50 (S. aureus MSSA1) was > 100 mg/kg.

In the case of `O=C(OCc1cc(Br)cc(Br)c1)c1ccc([N+](=O)[O-])s1` [compound 21], the MIC (S. aureus MRSA4) is reported as 6.3 µg/mL (≈ 15 µM) and the ED50 (S. aureus MSSA1) is reported as > 100 mg/kg.

`O=C(OCc1cc(Cl)cc(Cl)c1)c1cccc([N+](=O)[O-])n1` [compound 33] was tested, and the MIC (S. aureus MRSA4) was > 400 µg/mL.

`O=Cc1ccc(C(=O)OCc2cc(Cl)cc(Cl)c2)s1` [compound 23] was tested, and the MIC (S. aureus MRSA4) was 25 µg/mL (≈ 79.3 µM) and the ED50 (S. aureus MSSA1) was > 100 mg/kg.

Work on `O=C(OCc1c(Cl)cc(Cl)cc1Cl)c1ccc([N+](=O)[O-])s1` [compound 41] yielded an MIC (S. aureus MRSA4) of 1.6 µg/mL (≈ 4.36 µM) and an ED50 (S. aureus MSSA1) of 32 mg/kg.

`Cc1ccc(Cl)c(COC(=O)c2ccc([N+](=O)[O-])s2)c1F` [compound 45] was tested, and the MIC (S. aureus MRSA4) was 1.6 µg/mL (≈ 4.85 µM) and the ED50 (S. aureus MSSA1) was 82 mg/kg.

With `O=C(OCc1cc(Cl)cc(Cl)c1)c1ccco1` [compound 2] the MIC (S. aureus MRSA4) was > 200 µg/mL.

For `CN(Cc1ccccc1)C(=O)c1ccc([N+](=O)[O-])s1` [compound 14], the MIC (S. aureus MRSA4) was 50 µg/mL (≈ 181 µM) and the ED50 (S. aureus MSSA1) was > 210 mg/kg.

In the case of `O=C(OCc1cccc(Cl)c1)c1ccc([N+](=O)[O-])o1` [compound 3], the MIC (S. aureus MRSA4) is reported as 12.5 µg/mL (≈ 44.4 µM) and the ED50 (S. aureus MSSA1) is reported as > 87 mg/kg.

With `O=C(OCc1cc(Cl)cc(Cl)c1)c1cc([N+](=O)[O-])n[nH]1` [compound 30] the MIC (S. aureus MRSA4) was 1.6 µg/mL (≈ 5.06 µM) and the ED50 (S. aureus MSSA1) was > 210 mg/kg.

In the case of `CS(=O)(=O)c1ccc(COC(=O)c2ccc([N+](=O)[O-])s2)cc1` [compound 51], the MIC (S. aureus MRSA4) is reported as > 400 µg/mL.

`O=C(OCc1cc(Cl)cc(Cl)c1)c1ccc(Cl)s1` [compound 26] was tested, and the MIC (S. aureus MRSA4) was > 200 µg/mL.

For `Cc1ccc(C(=O)OCc2cc(Cl)cc(Cl)c2)s1` [compound 31], the MIC (S. aureus MRSA4) was > 200 µg/mL.

`O=C(OCc1ccc2ccccc2c1)c1ccc([N+](=O)[O-])o1` [compound 8] was tested, and the MIC (S. aureus MRSA4) was > 200 µg/mL and the ED50 (S. aureus MSSA1) was > 100 mg/kg.

For `Cc1ccc(COC(=O)c2ccc([N+](=O)[O-])s2)cc1` [compound 47], the MIC (S. aureus MRSA4) was 3.1 µg/mL (≈ 11.2 µM) and the ED50 (S. aureus MSSA1) was 33 mg/kg.

`O=C(OCc1cc(F)cc(Cl)c1)c1ccc([N+](=O)[O-])s1` [compound 20] gave an MIC (S. aureus MRSA4) of 0.4 µg/mL (≈ 1.27 µM) and an ED50 (S. aureus MSSA1) of 17 mg/kg.

`O=C(OCc1cccc(Br)c1)c1ccc([N+](=O)[O-])o1` [compound 17] was tested, and the MIC (S. aureus MRSA4) was 12.5 µg/mL (≈ 38.3 µM) and the ED50 (S. aureus MSSA1) was > 220 mg/kg.

`O=C(OCc1ccc(OC(F)(F)F)cc1)c1ccc([N+](=O)[O-])s1` [compound 57] showed an MIC (S. aureus MRSA4) of 6.3 µg/mL (≈ 18.1 µM).

With `O=C(COc1cc(Cl)cc(Cl)c1)c1ccc([N+](=O)[O-])o1` [compound 15] the MIC (S. aureus MRSA4) was 50 µg/mL (≈ 158 µM) and the ED50 (S. aureus MSSA1) was > 105 mg/kg.

For `O=C(OCc1cc2c(cc1Cl)OCO2)c1ccc([N+](=O)[O-])s1` [compound 50], the MIC (S. aureus MRSA4) was 3.1 µg/mL (≈ 9.07 µM) and the ED50 (S. aureus MSSA1) was > 240 mg/kg.

In the case of `O=C(OCc1cc(Cl)ccc1Cl)c1ccc([N+](=O)[O-])s1` [compound 43], the MIC (S. aureus MRSA4) is reported as 3.1 µg/mL (≈ 9.33 µM) and the ED50 (S. aureus MSSA1) is reported as > 180 mg/kg.

For `O=C(OCc1c(Cl)cccc1Cl)c1ccc([N+](=O)[O-])s1` [compound 42], the MIC (S. aureus MRSA4) was 3.1 µg/mL (≈ 9.33 µM) and the ED50 (S. aureus MSSA1) was > 180 mg/kg.

Molecule `CN(C)c1cccc(COC(=O)c2ccc([N+](=O)[O-])s2)c1` [compound 55] has an MIC (S. aureus MRSA4) of 25 µg/mL (≈ 81.6 µM).

With `O=C(OCc1ccccc1)c1ccc([N+](=O)[O-])o1` [compound 4] the MIC (S. aureus MRSA4) was 12.5 µg/mL (≈ 50.6 µM) and the ED50 (S. aureus MSSA1) was > 95 mg/kg.

For `CC(OC(=O)c1ccc([N+](=O)[O-])s1)c1ccc(Cl)cc1Cl` (centres unmarked) [compound 40], the MIC (S. aureus MRSA4) was 1.6 µg/mL (≈ 4.62 µM) and the ED50 (S. aureus MSSA1) was > 160 mg/kg.

`O=C(COc1cc(Cl)cc(Cl)c1)c1ccc([N+](=O)[O-])s1` [compound 16] was tested, and the MIC (S. aureus MRSA4) was 50 µg/mL (≈ 151 µM) and the ED50 (S. aureus MSSA1) was > 220 mg/kg.

With `O=C(OCc1cc(Cl)cc(Cl)c1)c1ccc(Br)s1` [compound 27] the MIC (S. aureus MRSA4) was > 200 µg/mL.

Molecule `CSc1ccc(COC(=O)c2ccc([N+](=O)[O-])s2)cc1` [compound 54] has an MIC (S. aureus MRSA4) of 6.3 µg/mL (≈ 20.4 µM) and an ED50 (S. aureus MSSA1) of 43 mg/kg.

For `O=C(OCc1c(F)cccc1Cl)c1ccc([N+](=O)[O-])s1` [compound 44], the MIC (S. aureus MRSA4) was 6.3 µg/mL (≈ 20 µM) and the ED50 (S. aureus MSSA1) was > 180 mg/kg.

`CC(=O)c1ccc(C(=O)OCc2cc(Cl)cc(Cl)c2)s1` [compound 34] was tested, and the MIC (S. aureus MRSA4) was > 400 µg/mL.

With `O=C(OCc1cc(Cl)cc(Cl)c1)c1cc(Br)c(Br)s1` [compound 28] the MIC (S. aureus MRSA4) was > 200 µg/mL and the ED50 (S. aureus MSSA1) was > 100 mg/kg.

For `O=C(OCc1ccc2ccccc2c1)c1ccc([N+](=O)[O-])s1` [compound 9], the MIC (S. aureus MRSA4) was 1.6 µg/mL (≈ 5.11 µM) and the ED50 (S. aureus MSSA1) was > 105 mg/kg.

For `O=C(NCc1cccc(Cl)c1)c1ccc([N+](=O)[O-])s1` [compound 11], the MIC (S. aureus MRSA4) was 6.3 µg/mL (≈ 21.2 µM) and the ED50 (S. aureus MSSA1) was > 170 mg/kg.

Molecule `O=C(OCc1cc(F)cc(F)c1)c1ccc([N+](=O)[O-])s1` [compound 46] has an MIC (S. aureus MRSA4) of 3.1 µg/mL (≈ 10.4 µM) and an ED50 (S. aureus MSSA1) of 81 mg/kg.

With `COc1cc(COC(=O)c2ccc([N+](=O)[O-])s2)cc(OC)c1` [compound 49] the MIC (S. aureus MRSA4) was > 400 µg/mL.

In the case of `O=C(NCc1cccc(Cl)c1)c1ccc([N+](=O)[O-])o1` [compound 10], the MIC (S. aureus MRSA4) is reported as 3.1 µg/mL (≈ 11 µM) and the ED50 (S. aureus MSSA1) is reported as > 105 mg/kg.

`O=C(OCc1cccc(Cl)c1)c1ccc([N+](=O)[O-])s1` [compound 6] gave an MIC (S. aureus MRSA4) of 0.5 µg/mL (≈ 1.68 µM) and an ED50 (S. aureus MSSA1) of 65 mg/kg.

`O=C(OCc1cccc(Br)c1)c1ccc([N+](=O)[O-])s1` [compound 18] was tested, and the MIC (S. aureus MRSA4) was 1.6 µg/mL (≈ 4.68 µM) and the ED50 (S. aureus MSSA1) was 53 mg/kg.

With `O=C(OCc1ccc(Cl)cc1Cl)c1ccc([N+](=O)[O-])s1` [compound 39] the MIC (S. aureus MRSA4) was 3.1 µg/mL (≈ 9.33 µM) and the ED50 (S. aureus MSSA1) was 28 mg/kg.

With `O=C(NCc1cc(Cl)cc(Cl)c1)c1ccc([N+](=O)[O-])s1` [compound 52] the MIC (S. aureus MRSA4) was 25 µg/mL (≈ 75.5 µM) and the ED50 (S. aureus MSSA1) was > 190 mg/kg.

`O=C(OCc1cc(Cl)cc(Cl)c1)c1csc([N+](=O)[O-])c1` [compound 36] was tested, and the MIC (S. aureus MRSA4) was > 400 µg/mL.

— article PMC5785531, “Pharmacokinetic parameters explain the therapeutic activity of antimicrobial agents in a silkworm infection model” (Scientific Reports, 2018)
